ChEMBL document CHEMBL5532666 (J Med Chem, 2024)
Calls of active or inactive are those of the source. The rule behind the calls is not given here.

What was measured:
[1] = target: T1, Serine/threonine-protein kinase 24 (Homo sapiens, UniProt Q9Y6E0); assay: Binding affinity to C-terminal full length human MST3 expressed in intact HEK293T cells incubated for 2 hrs by NanoBRET assay; type: cell-based
Target sequence in this assay (Q9Y6E0 whole entry): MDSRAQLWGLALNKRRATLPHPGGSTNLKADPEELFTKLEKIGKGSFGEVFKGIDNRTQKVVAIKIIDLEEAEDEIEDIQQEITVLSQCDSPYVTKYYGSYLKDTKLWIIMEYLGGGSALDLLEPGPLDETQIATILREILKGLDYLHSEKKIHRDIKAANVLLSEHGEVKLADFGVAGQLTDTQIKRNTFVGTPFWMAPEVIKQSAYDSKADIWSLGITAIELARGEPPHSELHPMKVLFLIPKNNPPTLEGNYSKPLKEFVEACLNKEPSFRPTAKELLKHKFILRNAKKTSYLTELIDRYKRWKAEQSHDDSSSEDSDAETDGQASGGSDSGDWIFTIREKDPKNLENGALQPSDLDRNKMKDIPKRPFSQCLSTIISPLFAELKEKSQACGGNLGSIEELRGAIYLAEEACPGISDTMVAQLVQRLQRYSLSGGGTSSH

[2] = Toxicity in human HCT-116 cells expressing FUCCI assessed as reduction in normalized cell count at 10 uM measured upto 80 hrs by Hoechst33342 staining based analysis; conditions: hct-116, 80 h
HCT-116 [3] = assay: Cell cycle arrest in human HCT-116 cells expressing […] assessed as G1 phase cells at 10 uM incubated for 72 hrs by Hoechst33342 staining based analysis (reference value: 52%); type: functional
LIM domain kinase 2 [4] = target: T2, LIM domain kinase 2 (Homo sapiens, UniProt P53671); assay: Binding affinity to LIMK2 (unknown origin) expressed in intact HEK293T cells incubated for 2 hrs by NanoBRET assay; type: cell-based
Target sequence in this assay (P53671 whole entry, the tested form may be a part): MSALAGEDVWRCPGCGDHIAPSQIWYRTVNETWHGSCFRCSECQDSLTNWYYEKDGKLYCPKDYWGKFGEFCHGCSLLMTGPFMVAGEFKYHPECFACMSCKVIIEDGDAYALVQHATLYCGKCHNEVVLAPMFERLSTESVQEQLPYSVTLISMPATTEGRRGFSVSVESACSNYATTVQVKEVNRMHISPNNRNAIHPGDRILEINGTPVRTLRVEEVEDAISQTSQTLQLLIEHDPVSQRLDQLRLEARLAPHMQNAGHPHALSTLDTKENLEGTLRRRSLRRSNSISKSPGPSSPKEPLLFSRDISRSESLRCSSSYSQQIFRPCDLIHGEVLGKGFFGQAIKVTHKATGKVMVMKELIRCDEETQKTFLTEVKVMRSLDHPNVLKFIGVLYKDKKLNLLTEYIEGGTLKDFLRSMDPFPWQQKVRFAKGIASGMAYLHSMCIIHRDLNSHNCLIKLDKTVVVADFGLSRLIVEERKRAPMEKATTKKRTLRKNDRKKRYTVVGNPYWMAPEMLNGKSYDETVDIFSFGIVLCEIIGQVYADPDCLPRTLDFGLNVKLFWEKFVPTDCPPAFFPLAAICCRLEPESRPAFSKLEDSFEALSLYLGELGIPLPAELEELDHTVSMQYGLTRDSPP

[5] = target: T3, Serine/threonine-protein kinase 3 (Homo sapiens, UniProt Q13188); assay: Binding affinity to N-terminal full length human MST2 expressed in intact HEK293T cells incubated for 2 hrs by NanoBRET assay; type: cell-based
T3 sequence (Q13188 whole entry): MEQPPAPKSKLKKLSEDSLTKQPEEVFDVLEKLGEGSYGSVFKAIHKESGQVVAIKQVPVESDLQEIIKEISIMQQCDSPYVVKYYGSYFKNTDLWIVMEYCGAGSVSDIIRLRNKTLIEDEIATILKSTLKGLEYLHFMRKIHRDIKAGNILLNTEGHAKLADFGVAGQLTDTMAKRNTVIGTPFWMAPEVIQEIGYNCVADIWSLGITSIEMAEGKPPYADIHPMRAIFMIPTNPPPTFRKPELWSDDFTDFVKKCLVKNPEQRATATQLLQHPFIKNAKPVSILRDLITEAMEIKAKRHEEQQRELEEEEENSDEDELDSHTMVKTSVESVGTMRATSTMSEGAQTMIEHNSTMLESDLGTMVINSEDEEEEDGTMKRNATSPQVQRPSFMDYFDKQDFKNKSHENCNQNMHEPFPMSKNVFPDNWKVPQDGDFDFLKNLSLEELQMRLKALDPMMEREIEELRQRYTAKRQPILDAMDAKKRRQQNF

[6] = target: T4, Serine/threonine-protein kinase RIO1 (Homo sapiens) (UniProt Q9BRS2); assay: Binding affinity to RIOK1 (unknown origin) assessed as thermal stabilization by measuring change in melting temperature by DSF analysis
T4 sequence (whole entry): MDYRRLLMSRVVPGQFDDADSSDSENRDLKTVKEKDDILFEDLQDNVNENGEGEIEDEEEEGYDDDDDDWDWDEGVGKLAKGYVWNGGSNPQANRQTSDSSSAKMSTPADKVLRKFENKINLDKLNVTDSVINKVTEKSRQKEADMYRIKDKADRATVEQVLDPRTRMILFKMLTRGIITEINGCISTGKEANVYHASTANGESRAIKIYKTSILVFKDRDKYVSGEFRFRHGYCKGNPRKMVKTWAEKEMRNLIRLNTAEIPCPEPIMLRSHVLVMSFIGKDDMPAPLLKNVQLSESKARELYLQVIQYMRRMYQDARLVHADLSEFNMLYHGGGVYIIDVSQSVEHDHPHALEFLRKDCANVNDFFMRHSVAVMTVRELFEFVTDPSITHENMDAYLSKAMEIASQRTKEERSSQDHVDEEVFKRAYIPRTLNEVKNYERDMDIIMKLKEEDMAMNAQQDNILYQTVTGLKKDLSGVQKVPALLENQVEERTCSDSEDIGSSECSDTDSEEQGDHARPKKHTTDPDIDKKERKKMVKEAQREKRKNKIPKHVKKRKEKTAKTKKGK

[7] = Toxicity in human HCT-116 cells expressing FUCCI assessed as normalized cell count at 10 uM measured after 72 hrs by Hoechst33342 staining based analysis relative to control; conditions: read-out: Activity
HCT-116 [8] = assay: Cell cycle arrest in human HCT-116 cells expressing […] assessed as G2/M phase cells at 1 uM incubated for 72 hrs by Hoechst33342 staining based analysis (reference value: 38%); type: functional
[9] = target: Dual specificity protein kinase CLK1 (Homo sapiens) (UniProt P49759); assay: Binding affinity to CLK1 (unknown origin) assessed as thermal stabilization by measuring change in melting temperature by DSF analysis
LIM domain kinase 2 [10] = target: T2, LIM domain kinase 2; assay: Inhibition of wildtype LIMK2 (unknown origin) assessed as residual activity at 1 uM relative to control
Target sequence in this assay (P53671 whole entry, looked up, the tested form may be a part): as the sequence (P53671 whole entry, the tested form may be a part) above

[11] = target: T5, Serine/threonine-protein kinase 26 (Homo sapiens, UniProt Q9P289); assay: Binding affinity to C-terminal full length human MST4 expressed in permeabilized HEK293T cells incubated for 2 hrs by NanoBRET assay; type: cell-based
Target sequence in this assay (Q9P289 whole entry): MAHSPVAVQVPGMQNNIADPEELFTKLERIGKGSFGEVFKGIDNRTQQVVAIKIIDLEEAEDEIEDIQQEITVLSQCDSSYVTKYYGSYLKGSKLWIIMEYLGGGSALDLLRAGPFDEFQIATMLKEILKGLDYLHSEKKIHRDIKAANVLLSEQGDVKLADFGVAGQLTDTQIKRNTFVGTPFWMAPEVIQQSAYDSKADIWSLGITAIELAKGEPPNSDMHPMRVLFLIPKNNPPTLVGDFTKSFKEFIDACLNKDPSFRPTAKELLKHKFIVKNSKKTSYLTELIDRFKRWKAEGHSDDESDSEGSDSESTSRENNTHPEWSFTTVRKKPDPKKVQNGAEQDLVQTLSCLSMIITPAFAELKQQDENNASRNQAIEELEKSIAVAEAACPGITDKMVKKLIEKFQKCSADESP

HCT-116 [12] = assay: Cell cycle arrest in human HCT-116 cells expressing […] assessed as G2/M phase cells at 10 uM incubated for 72 hrs by Hoechst33342 staining based analysis (reference value: 38%); type: functional
[13] = target: Maternal embryonic leucine zipper kinase (Homo sapiens) (UniProt Q14680); assay: Binding affinity to MELK (unknown origin) assessed as thermal stabilization by measuring change in melting temperature by DSF analysis
[14] = target: T1, Serine/threonine-protein kinase 24; conditions: dose 10.0 µM
Target sequence in this assay (Q9Y6E0 whole entry, looked up): as the sequence (Q9Y6E0 whole entry) above
Description: Binding affinity to recombinant MST3 (unknown origin) kinase domain assessed as thermal stabilization by measuring change in melting temperature at 10 uM by DSF analysis

[15] = target: T5, Serine/threonine-protein kinase 26; assay: Binding affinity to N-terminal 6His-tagged TEV fused MST4 (unknown origin) expressed in Escherichia coli BL21 (DE3) cells assessed as offset in binding entropy change by ITC analysis
Target sequence in this assay (Q9P289 2-416 limits assumed): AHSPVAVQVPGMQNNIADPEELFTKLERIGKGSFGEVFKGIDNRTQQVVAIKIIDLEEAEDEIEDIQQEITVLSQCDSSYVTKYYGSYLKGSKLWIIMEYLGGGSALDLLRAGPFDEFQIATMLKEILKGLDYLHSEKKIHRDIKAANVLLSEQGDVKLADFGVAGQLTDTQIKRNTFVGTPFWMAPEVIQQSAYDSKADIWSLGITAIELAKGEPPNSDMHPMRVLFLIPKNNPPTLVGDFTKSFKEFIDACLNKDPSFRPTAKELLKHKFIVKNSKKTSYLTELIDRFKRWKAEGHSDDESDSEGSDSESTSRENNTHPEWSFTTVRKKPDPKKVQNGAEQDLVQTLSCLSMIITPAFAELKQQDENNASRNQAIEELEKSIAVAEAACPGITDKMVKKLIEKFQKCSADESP

[16] = target: T5, Serine/threonine-protein kinase 26; assay: Inhibition of wildtype MST4 (unknown origin) assessed as residual activity at 1 uM relative to control
Target sequence in this assay (Q9P289 2-416 limits assumed): as above

[17] = target: T5, Serine/threonine-protein kinase 26; assay: Binding affinity to C-terminal full length human MST4 expressed in intact HEK293T cells incubated for 2 hrs by NanoBRET assay; type: cell-based
Target sequence in this assay (Q9P289 whole entry): as the sequence (Q9P289 whole entry) above

LIM domain kinase 1 [18] = target: T6, LIM domain kinase 1 (Homo sapiens, UniProt P53667); assay: Inhibition of wildtype LIMK1 (unknown origin) assessed as residual activity at 1 uM relative to control
Target sequence in this assay (P53667 whole entry, looked up, the tested form may be a part): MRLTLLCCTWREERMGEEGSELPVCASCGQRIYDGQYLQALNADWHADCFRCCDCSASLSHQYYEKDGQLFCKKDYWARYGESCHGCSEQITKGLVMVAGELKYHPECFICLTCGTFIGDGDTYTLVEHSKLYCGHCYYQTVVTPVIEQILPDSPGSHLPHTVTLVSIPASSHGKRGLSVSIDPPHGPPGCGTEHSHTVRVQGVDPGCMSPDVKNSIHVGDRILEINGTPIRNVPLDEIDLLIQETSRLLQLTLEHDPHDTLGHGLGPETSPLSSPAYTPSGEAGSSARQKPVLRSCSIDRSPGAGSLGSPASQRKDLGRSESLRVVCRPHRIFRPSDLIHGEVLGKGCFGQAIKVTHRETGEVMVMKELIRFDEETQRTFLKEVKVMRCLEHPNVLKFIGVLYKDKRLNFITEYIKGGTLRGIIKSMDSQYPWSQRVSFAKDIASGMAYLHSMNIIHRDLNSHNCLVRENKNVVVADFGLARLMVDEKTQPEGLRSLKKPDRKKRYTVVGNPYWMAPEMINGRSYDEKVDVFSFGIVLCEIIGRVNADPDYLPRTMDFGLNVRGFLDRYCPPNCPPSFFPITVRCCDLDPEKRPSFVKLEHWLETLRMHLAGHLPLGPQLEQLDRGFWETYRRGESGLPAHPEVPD

LIM domain kinase 1 [19] = target: T6, LIM domain kinase 1; assay: Binding affinity to LIMK1 (unknown origin) expressed in permeabilized HEK293T cells incubated for 2 hrs by NanoBRET assay; type: cell-based
Target sequence in this assay (P53667 whole entry, the tested form may be a part): as the sequence (P53667 whole entry, looked up, the tested form may be a part) above

Sequence of Maternal embryonic leucine zipper kinase (Homo sapiens) (Q14680 whole entry, looked up): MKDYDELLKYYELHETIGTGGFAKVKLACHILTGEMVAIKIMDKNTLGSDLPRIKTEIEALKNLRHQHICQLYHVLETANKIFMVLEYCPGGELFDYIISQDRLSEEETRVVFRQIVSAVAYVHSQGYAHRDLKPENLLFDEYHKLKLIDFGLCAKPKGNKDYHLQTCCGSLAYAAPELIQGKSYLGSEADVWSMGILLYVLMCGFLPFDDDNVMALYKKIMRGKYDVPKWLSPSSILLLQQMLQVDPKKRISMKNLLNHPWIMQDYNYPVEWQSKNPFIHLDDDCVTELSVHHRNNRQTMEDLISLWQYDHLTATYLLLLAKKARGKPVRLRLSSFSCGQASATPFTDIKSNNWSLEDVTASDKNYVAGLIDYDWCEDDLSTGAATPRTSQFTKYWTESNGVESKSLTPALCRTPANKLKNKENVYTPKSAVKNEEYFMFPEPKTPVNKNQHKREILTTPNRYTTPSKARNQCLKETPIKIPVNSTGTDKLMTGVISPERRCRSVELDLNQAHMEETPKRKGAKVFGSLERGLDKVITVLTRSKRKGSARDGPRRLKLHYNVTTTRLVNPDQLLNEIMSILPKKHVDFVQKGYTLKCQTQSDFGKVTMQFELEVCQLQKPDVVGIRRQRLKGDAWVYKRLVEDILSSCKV
Sequence of Dual specificity protein kinase CLK1 (Homo sapiens) (P49759 whole entry, looked up, the tested form may be a part): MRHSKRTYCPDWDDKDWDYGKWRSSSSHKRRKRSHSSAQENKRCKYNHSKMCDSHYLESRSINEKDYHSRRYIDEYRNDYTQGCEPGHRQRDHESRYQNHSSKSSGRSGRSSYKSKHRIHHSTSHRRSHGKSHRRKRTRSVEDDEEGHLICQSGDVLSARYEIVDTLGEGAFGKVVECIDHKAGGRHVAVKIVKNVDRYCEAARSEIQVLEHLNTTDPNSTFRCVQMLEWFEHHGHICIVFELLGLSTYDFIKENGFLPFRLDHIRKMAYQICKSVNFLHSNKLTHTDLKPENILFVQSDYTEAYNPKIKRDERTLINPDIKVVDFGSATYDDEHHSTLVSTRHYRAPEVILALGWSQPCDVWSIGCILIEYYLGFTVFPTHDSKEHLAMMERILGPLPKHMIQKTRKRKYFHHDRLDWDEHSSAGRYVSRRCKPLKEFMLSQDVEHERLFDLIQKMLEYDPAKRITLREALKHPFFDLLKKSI

- EC50 [1]: 0.11 µM
- EC50 (LIM domain kinase 2 [4]): 1.78 µM
- EC50 [5]: > 50 µM
- ΔTm [6]: 5.1 °C
- ΔTm [9]: 5.1 °C
- Activity (LIM domain kinase 2 [10]): 38.2%
- EC50 [11]: 0.36 µM
- ΔTm [13]: 5.1 °C
- ΔTm [14]: 7.5 °C
- Activity [15]: Active
- Activity [16]: 18%
- EC50 [17]: 1.43 µM
- Activity (LIM domain kinase 1 [18]): 36.6%
- EC50 (LIM domain kinase 1 [19]): 2.48 µM
Compound: O=C1NCCCCCNc2nc(c3ccccc3n2)Nc2cc1[nH]n2
- Activity [2]: Toxic
- Activity (HCT-116 [3]): 40%
- viability at 72 h, 10 µM [7]: < 30%
- Activity (HCT-116 [8]): 33%
- Activity (HCT-116 [12]): 33%
